Experimental data reported in patent US7723527B2 (Janssen Pharmaceutica NV, priority 2003, dated 2010).

Biological target: T1, human histamine H4 receptor (Homo sapiens, UniProt Q9H3N8)
T1 construct: expressed in transfected cells; host or cells: SK-N-MC cells or COS7 cells, transiently transfected; cell membranes used
Assay: Binding assay on recombinant human histamine H4 receptor (3H-histamine displacement)
Conditions: competition binding with 3H-histamine; membranes of SK-N-MC or COS7 cells expressing human H4 receptor; Cheng-Prusoff, KD 5 nM, ligand 5 nM
How it was run: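 Membranes from SK-N-MC or COS7 cells transiently transfected with human H4R, incubated with ^3H-histamine (5-70 nM) at room temperature for 45 min, nonspecific binding with 10,000 nM histamine. Filtration and scintillation counting; compound affinity from displacement of ^3H-ligand across varying concentrations.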

T1 sequence (Q9H3N8 whole entry): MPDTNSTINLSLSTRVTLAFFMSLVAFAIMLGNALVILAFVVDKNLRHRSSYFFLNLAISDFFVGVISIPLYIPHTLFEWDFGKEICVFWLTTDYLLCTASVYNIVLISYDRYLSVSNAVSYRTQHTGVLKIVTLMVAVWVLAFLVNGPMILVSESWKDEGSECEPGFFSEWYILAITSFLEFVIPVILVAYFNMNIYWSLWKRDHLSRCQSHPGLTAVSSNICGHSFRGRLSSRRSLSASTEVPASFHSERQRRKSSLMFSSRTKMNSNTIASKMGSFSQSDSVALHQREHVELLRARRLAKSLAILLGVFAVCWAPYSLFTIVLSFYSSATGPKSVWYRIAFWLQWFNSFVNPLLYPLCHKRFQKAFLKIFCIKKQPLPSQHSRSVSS

SMILES	Ki [nM]
Cc1cc(OCCCC2CCN(C)CC2)ncc1-c1nc2c(C)cccc2[nH]1 [Example 110, 4-Methyl-2-{4-methyl-6-[3-(1-methyl-piperidin-4-yl)-propoxy]-pyridin-3-yl}-1H-benzoimidazole]	6
Cc1cc(OCCCC2CCN(C)CC2)ncc1-c1nc2c(C)c(F)ccc2[nH]1 [Example 111, 5-Fluoro-4-methyl-2-{4-methyl-6-[3-(1-methyl-piperidin-4-yl)-propoxy]-pyridin-3-yl}-1H-benzoimidazole]	21
Cc1cc(OCCCC2CCN(C)CC2)ncc1-c1nc2c(C)c(C)ccc2[nH]1 [Example 112, 4,5-Dimethyl-2-{4-methyl-6-[3-(1-methyl-piperidin-4-yl)-propoxy]-pyridin-3-yl}-1H-benzoimidazole]	6
Cc1cc(C)c2nc(-c3cnc(OCCCC4CCN(C)CC4)cc3C)[nH]c2c1 [Example 113, 4,6-Dimethyl-2-{4-methyl-6-[3-(1-methyl-piperidin-4-yl)-propoxy]-pyridin-3-yl}-1H-benzoimidazole]	4
Cc1cc(OCCCC2CCN(C)CC2)ncc1-c1nc2c(Cl)cccc2[nH]1 [Example 114, 4-Chloro-2-{4-methyl-6-[3-(1-methyl-piperidin-4-yl)-propoxy]-pyridin-3-yl}-1H-benzoimidazole]	11
Cc1c(F)ccc2[nH]c(-c3cnc(OCCCC4CCN(C)CC4)cc3Cl)nc12 [Example 115, 2-{4-Chloro-6-[3-(1-methyl-piperidin-4-yl)-propoxy]-pyridin-3-yl}-5-fluoro-4-methyl-1H-benzoimidazole]	4
Cc1cccc2[nH]c(-c3cnc(OCCCC4CCN(C)CC4)cc3Cl)nc12 [Example 116, 2-{4-Chloro-6-[3-(1-methyl-piperidin-4-yl)-propoxy]-pyridin-3-yl}-4-methyl-1H-benzoimidazole]	12
Cc1cc(Cl)cc2[nH]c(-c3cnc(OCCCC4CCN(C)CC4)cc3Cl)nc12 [Example 117, 6-Chloro-2-{4-chloro-6-[3-(1-methyl-piperidin-4-yl)-propoxy]-pyridin-3-yl}-4-methyl-1H-benzoimidazole]	5
Cc1cc(C)c2nc(-c3cnc(OCCCC4CCN(C)CC4)cc3Cl)[nH]c2c1 [Example 118, 2-{4-Chloro-6-[3-(1-methyl-piperidin-4-yl)-propoxy]-pyridin-3-yl}-4,6-dimethyl-1H-benzoimidazole]	4
COc1cc(OCCCC2CCN(C)CC2)ncc1-c1nc2c(C)cccc2[nH]1 [Example 119, 2-{4-Methoxy-6-[3-(1-methyl-piperidin-4-yl)-propoxy]-pyridin-3-yl}-4-methyl-1H-benzoimidazole]	51
COc1cc(OCCCC2CCN(C)CC2)ncc1-c1nc2c(C)c(F)ccc2[nH]1 [Example 120, 5-Fluoro-2-{4-methoxy-6-[3-(1-methyl-piperidin-4-yl)-propoxy]-pyridin-3-yl}-4-methyl-1H-benzoimidazole]	94
Cc1c(F)ccc2[nH]c(-c3ccc(OCCCC4=CCN(C)CC4)nc3)nc12 [Example 121, 5-Fluoro-4-methyl-2-{6-[3-(1-methyl-1,2,3,6-tetrahydro-pyridin-4-yl)-propoxy]-pyridin-3-yl}-1H-benzoimidazole]	60
Cc1cccc2[nH]c(-c3ccc(OCCCC4=CCN(C)CC4)nc3)nc12 [Example 122, 4-Methyl-2-{6-[3-(1-methyl-1,2,3,6-tetrahydro-pyridin-4-yl)-propoxy]-pyridin-3-yl}-1H-benzoimidazole]	71
Cc1cc(Cl)cc2[nH]c(-c3ccc(OCCCC4=CCN(C)CC4)nc3)nc12 [Example 123, 6-Chloro-4-methyl-2-{6-[3-(1-methyl-1,2,3,6-tetrahydro-pyridin-4-yl)-propoxy]-pyridin-3-yl}-1H-benzoimidazole]	67
Cc1ccc2[nH]c(-c3ccc(OCCCC4=CCN(C)CC4)nc3)nc2c1C [Example 124, 4,5-Dimethyl-2-{6-[3-(1-methyl-1,2,3,6-tetrahydro-pyridin-4-yl)-propoxy]-pyridin-3-yl}-1H-benzoimidazole]	86
Cc1cc(C)c2nc(-c3ccc(OCCCC4=CCN(C)CC4)nc3)[nH]c2c1 [Example 125, 4,6-Dimethyl-2-{6-[3-(1-methyl-1,2,3,6-tetrahydro-pyridin-4-yl)-propoxy]-pyridin-3-yl}-1H-benzoimidazole]	77
Cc1c(Cl)ccc2[nH]c(-c3ccc(OCCCC4=CCN(C)CC4)nc3)nc12 [Example 126, 5-Chloro-4-methyl-2-{6-[3-(1-methyl-1,2,3,6-tetrahydro-pyridin-4-yl)-propoxy]-pyridin-3-yl}-1H-benzoimidazole]	427
Cc1c(F)ccc2[nH]c(-c3cnc(OCCCC4CCN(C)CC4)cc3CN3CCCC3)nc12 [Example 127, 5-Fluoro-4-methyl-2-{6-[3-(1-methyl-piperidin-4-yl)-propoxy]-4-pyrrolidin-1-ylmethyl-pyridin-3-yl}-1H-benzoimidazole]	773
Cc1cccc2[nH]c(-c3cc(OCCCCC4CCN(C)CC4)ncc3Br)nc12 [Example 128, 2-{5-Bromo-2-[4-(1-methyl-piperidin-4-yl)-butoxy]-pyridin-4-yl}-4-methyl-1H-benzoimidazole]	3

SMILES	Ki [nM]
Cc1c(F)ccc2[nH]c(-c3cc(OCCCCC4CCN(C)CC4)ncc3Br)nc12 [Example 129, 2-{5-Bromo-2-[4-(1-methyl-piperidin-4-yl)-butoxy]-pyridin-4-yl}-5-fluoro-4-methyl-1H-benzoimidazole]	5
Cc1cc(Cl)cc2[nH]c(-c3cc(OCCCCC4CCN(C)CC4)ncc3Br)nc12 [Example 130, 2-{5-Bromo-2-[4-(1-methyl-piperidin-4-yl)-butoxy]-pyridin-4-yl}-6-chloro-4-methyl-1H-benzoimidazole]	5
Cc1cc(C)c2nc(-c3cc(OCCCCC4CCN(C)CC4)ncc3Br)[nH]c2c1 [Example 131, 2-{5-Bromo-2-[4-(1-methyl-piperidin-4-yl)-butoxy]-pyridin-4-yl}-4,6-dimethyl-1H-benzoimidazole]	3
Cc1ccc2[nH]c(-c3cc(OCCCCC4CCN(C)CC4)ncc3Br)nc2c1C [Example 132, 2-{5-Bromo-2-[4-(1-methyl-piperidin-4-yl)-butoxy]-pyridin-4-yl}-4,5-dimethyl-1H-benzoimidazole]	5
Cc1c(Cl)ccc2[nH]c(-c3cc(OCCCCC4CCN(C)CC4)ncc3Br)nc12 [Example 133, 2-{5-Bromo-2-[4-(1-methyl-piperidin-4-yl)-butoxy]-pyridin-4-yl}-5-chloro-4-methyl-1H-benzoimidazole]	12
CN1CCC(CCCCOc2cc(-c3nc4cc(C(C)(C)C)ccc4[nH]3)c(Br)cn2)CC1 [Example 134, 2-{5-Bromo-2-[4-(1-methyl-piperidin-4-yl)-butoxy]-pyridin-4-yl}-5-tert-butyl-1H-benzoimidazole]	117
CN1CCC(CCCCOc2cc(-c3nc4cc(C(C)(C)C)ccc4[nH]3)ccn2)CC1 [Example 135, 5-tert-Butyl-2-{2-[4-(1-methyl-piperidin-4-yl)-butoxy]-pyridin-4-yl}-1H-benzoimidazole]	47
Cc1c(F)ccc2[nH]c(-c3cc(OCCCCC4CCN(C)CC4)ncc3Cl)nc12 [Example 136, 2-{5-Chloro-2-[4-(1-methyl-piperidin-4-yl)-butoxy]-pyridin-4-yl}-5-fluoro-4-methyl-1H-benzoimidazole]	1
Cc1ccc2[nH]c(-c3cc(OCCCCC4CCN(C)CC4)ncc3Cl)nc2c1C [Example 137, 2-{5-Chloro-2-[4-(1-methyl-piperidin-4-yl)-butoxy]-pyridin-4-yl}-4,5-dimethyl-1H-benzoimidazole]	3
Cc1cc(C)c2nc(-c3ccnc(OCCCCN4CCN(C)CC4)c3)[nH]c2c1 [Example 138, 4,6-Dimethyl-2-{2-[4-(4-methyl-piperazin-1-yl)-butoxy]-pyridin-4-yl}-1H-benzoimidazole]	46
Cc1cccc2[nH]c(-c3ccnc(OCCCCN4CCN(C)CC4)c3)nc12 [Example 139, 4-Methyl-2-{2-[4-(4-methyl-piperazin-1-yl)-butoxy]-pyridin-4-yl}-1H-benzoimidazole]	69
Cc1ccc2[nH]c(-c3ccnc(OCCCCN4CCN(C)CC4)c3)nc2c1C [Example 140, 4,5-Dimethyl-2-{2-[4-(4-methyl-piperazin-1-yl)-butoxy]-pyridin-4-yl}-1H-benzoimidazole]	144
Cc1c(F)ccc2[nH]c(-c3ccnc(OCCCCN4CCN(C)CC4)c3)nc12 [Example 141, 5-Fluoro-4-methyl-2-{2-[4-(4-methyl-piperazin-1-yl)-butoxy]-pyridin-4-yl}-1H-benzoimidazole]	60
Cc1cc(Cl)cc2[nH]c(-c3ccnc(OCCCCN4CCN(C)CC4)c3)nc12 [Example 142, 6-Chloro-4-methyl-2-{2-[4-(4-methyl-piperazin-1-yl)-butoxy]-pyridin-4-yl}-1H-benzoimidazole]	73
Cc1c(F)ccc2[nH]c(-c3ccnc(OCCCCN4CCCN(C)CC4)c3)nc12 [Example 143, 5-Fluoro-4-methyl-2-{2-[4-(4-methyl-[1,4]diazepan-1-yl)-butoxy]-pyridin-4-yl}-1H-benzoimidazole]	6
Cc1ccc2[nH]c(-c3ccnc(OCCCCN4CCCN(C)CC4)c3)nc2c1C [Example 144, 4,5-Dimethyl-2-{2-[4-(4-methyl-[1,4]diazepan-1-yl)-butoxy]-pyridin-4-yl}-1H-benzoimidazole]	8
Cc1cc(C)c2nc(-c3ccnc(OCCCCC4CCN(C)CC4)c3)[nH]c2c1 [Example 145, 4,6-Dimethyl-2-{2-[4-(1-methyl-piperidin-4-yl)-butoxy]-pyridin-4-yl}-1H-benzoimidazole]	3
Cc1cccc2[nH]c(-c3ccnc(OCCCCC4CCN(C)CC4)c3)nc12 [Example 146, 4-Methyl-2-{2-[4-(1-methyl-piperidin-4-yl)-butoxy]-pyridin-4-yl}-1H-benzoimidazole]	5
